Experiments:
pbDHODH = pbDHODH (Plasmodium berghei, UniProt A0A509AEH5); assay: DCIP assay, pbDHODH; format: biochemical, P. berghei; details: 200 μM L-DHO, 18 μM CoQD, 100 μM DCIP, 20 nM enzyme
Description: (§1) Type 2 DHODH activity was monitored with either the direct assay measuring the formation of orotate or via a chromogen reduction assay using DCIP. Although the extinction coefficient and absorption wavelength are preferable for the chromogen reduction assay, the inorganic electron acceptor DCIP can be utilized by DHODH as the final electron acceptor in lieu of CoQn when the endogenous substrate is at a low concentration. As such, the direct assay was used to measure the binding affinity of pfDHODH to CoQD and L-DHO. The enzymatic reaction was performed by varying the L-DHO concentration (1-400 μM) or CoQD concentration (1-200 μM) while keeping the other substrate constant and in excess. The formation of orotate was measured continuously at 296 nm (ε296=4.3 mM^−1 cm^−1). Inhibition of DHODH by small molecules was evaluated using the chromogen based assay with a final substrate concentration of 200 μM L-DHO, 18 μM CoQD, and 100 μM DCIP, unless otherwise noted. The reduction of DCIP was monitored at 600 nm (ε600=18.8 mM^−1 cm^−1).
(§2) Substrate specificity and enzyme inhibition data was analyzed with GraphPad Prism Version 4 for Windows (GraphPad Software). Kinetic constants were calculated by non-linear regression fitting of the data to the Michaelis-Menten equation [36]. IC50 values were determined by non-linear regression fitting of the data to Equation 1: […]

pvDHODH = pvDHODH (Plasmodium vivax, UniProt A5K1N1); assay: DCIP assay, pvDHODH; format: biochemical, P. vivax; details: 200 μM L-DHO, 18 μM CoQD, 100 μM DCIP, 20 nM enzyme
Description: as §1, §2

scDHODH = scDHODH (Saccharomyces cerevisiae (strain ATCC 204508 / S288c) (Baker's yeast), UniProt P28272); assay: DCIP assay with fumarate, scDHODH; format: biochemical; details: 115 μM fumarate in lieu of CoQD
P. falciparum HB3 = assay: Inhibition of in vitro P. falciparum culture, [3H]-hypoxanthine uptake, HB3; format: cell-based; details: Plasmodium falciparum, HB3, Erythrocyte; [3H]-hypoxanthine uptake by parasite infected erythrocytes; read-out: HB3 IC50
Protocol: (§3) P. falciparum strains D10, 3D7, HB3, and Dd2 were obtained from the Malaria Research and Reference Reagent Resource Center (Manassas, Va.). The parasite strains were maintained in vitro by method of Trager and Jensen. The inhibition of P. falciparum growth in the presence of drug was assessed by the relative reduction of [^3H]-hypoxanthine uptake as previously described. Inhibition data were fitted to Equation 1 using non-linear regression analysis except that the relative velocity of parasite growth was substituted for the rate of product formation.

P. falciparum D10 = assay: Inhibition of in vitro P. falciparum culture, [3H]-hypoxanthine uptake, D10; format: cell-based; details: Plasmodium falciparum, D10, Erythrocyte; [3H]-hypoxanthine uptake by parasite infected erythrocytes; read-out: D10 IC50
Protocol: as §3

[1] = tested on: P. falciparum D10-scDHODH; assay: Inhibition of transgenic D10-scDHODH parasites, [3H]-hypoxanthine uptake; format: cell-based
Protocol: as §3
Transgenic parasites expressing scDHODH were generated as described by Painter et al. except that full length scDHODH was cloned directly into the pGem3Z vector without a GFP tag. The resultant plasmid was transfected into ring stages of P. falciparum D10 by electroporation and maintained in culture using standard methods under the selection of WR99210.

pfDHODH = pfDHODH (Plasmodium falciparum (isolate 3D7), UniProt Q08210); assay: pfDHODH activity with FeCy as electron acceptor; details: read-out: % Inhibition of Product Formation Rate with 50 μM Inhibitor, FeCy
Protocol: Inhibitors of DHODH, as classified by the chromogen reduction assay, were also evaluated for activity using FeCy as an electron acceptor. A final concentration of 5-50 nM DHODH, 200 μM L-DHO and 100 μM FeCy in Buffer C was used in this assay. Both the reduction of FeCy and the formation of orotate was monitored at 420 nm (ε420=1 mM^−1 cm^−1) and 290 nm (ε280=2 mM^−1 cm^−1), respectively, noting that two molecules of FeCy are reduced for one molecule of L-DHO. As with the previous assays, the reaction was performed at 25° C. and initiated with the addition of enzyme.

Hepatic clearance, human = format: in vitro ADME
Description: Clearance of drug by the liver will depend on the rate of delivery of drug to the liver (the hepatic blood flow) and on the efficiency of removal of drug which is presented to it (the extraction ratio). The hepatic clearance of compounds can be determined by standard methods known in the art. Such methods are described in, for example, Naritomi, Y; Terashita, S; Kagayama, A; Sugiyama, Y. “Utility of Hepatocytes in Predicting Drug Metabolism: Comparison of Hepatic Intrinsic Clearance in Rats and Humans in Vivo and in Vitro.” 2003, 31 (5): pages 580-588.

pvDHODH, sequence (A5K1N1 1-572): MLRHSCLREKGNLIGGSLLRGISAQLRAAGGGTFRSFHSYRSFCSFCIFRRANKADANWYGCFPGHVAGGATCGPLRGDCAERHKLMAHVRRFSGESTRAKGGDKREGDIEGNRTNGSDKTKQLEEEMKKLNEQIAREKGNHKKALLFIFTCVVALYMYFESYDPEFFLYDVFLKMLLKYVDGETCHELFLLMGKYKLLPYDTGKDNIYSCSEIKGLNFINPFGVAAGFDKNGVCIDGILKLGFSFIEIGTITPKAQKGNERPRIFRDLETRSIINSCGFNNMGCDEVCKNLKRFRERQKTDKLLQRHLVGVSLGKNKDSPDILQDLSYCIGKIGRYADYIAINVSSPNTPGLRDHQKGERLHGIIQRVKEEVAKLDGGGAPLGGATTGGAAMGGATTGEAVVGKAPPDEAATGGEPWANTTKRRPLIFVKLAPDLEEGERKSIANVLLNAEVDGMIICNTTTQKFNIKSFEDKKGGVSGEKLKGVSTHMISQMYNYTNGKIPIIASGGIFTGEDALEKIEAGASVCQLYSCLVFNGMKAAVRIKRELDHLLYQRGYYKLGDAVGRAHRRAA
scDHODH, sequence (P28272 whole entry): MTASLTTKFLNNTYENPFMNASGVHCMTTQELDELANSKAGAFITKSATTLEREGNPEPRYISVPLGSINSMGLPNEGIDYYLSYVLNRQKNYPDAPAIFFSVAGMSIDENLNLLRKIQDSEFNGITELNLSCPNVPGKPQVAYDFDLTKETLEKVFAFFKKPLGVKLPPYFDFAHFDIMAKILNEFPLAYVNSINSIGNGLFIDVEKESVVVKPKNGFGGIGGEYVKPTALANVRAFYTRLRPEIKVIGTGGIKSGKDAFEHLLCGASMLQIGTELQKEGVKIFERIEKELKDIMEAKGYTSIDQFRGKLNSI
pfDHODH, sequence (Q08210 159-565 limits assumed): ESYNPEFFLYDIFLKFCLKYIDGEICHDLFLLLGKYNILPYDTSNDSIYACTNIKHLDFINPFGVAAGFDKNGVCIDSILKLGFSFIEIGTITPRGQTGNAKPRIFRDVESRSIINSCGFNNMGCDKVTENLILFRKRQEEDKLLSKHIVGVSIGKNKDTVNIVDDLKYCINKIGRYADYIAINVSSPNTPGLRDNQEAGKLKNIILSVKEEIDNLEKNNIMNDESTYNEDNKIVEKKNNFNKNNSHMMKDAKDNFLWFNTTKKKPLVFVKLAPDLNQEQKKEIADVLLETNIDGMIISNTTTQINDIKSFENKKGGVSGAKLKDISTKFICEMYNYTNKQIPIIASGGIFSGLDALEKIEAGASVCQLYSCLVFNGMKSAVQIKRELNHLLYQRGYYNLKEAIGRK
pbDHODH, sequence (A0A509AEH5 1-517): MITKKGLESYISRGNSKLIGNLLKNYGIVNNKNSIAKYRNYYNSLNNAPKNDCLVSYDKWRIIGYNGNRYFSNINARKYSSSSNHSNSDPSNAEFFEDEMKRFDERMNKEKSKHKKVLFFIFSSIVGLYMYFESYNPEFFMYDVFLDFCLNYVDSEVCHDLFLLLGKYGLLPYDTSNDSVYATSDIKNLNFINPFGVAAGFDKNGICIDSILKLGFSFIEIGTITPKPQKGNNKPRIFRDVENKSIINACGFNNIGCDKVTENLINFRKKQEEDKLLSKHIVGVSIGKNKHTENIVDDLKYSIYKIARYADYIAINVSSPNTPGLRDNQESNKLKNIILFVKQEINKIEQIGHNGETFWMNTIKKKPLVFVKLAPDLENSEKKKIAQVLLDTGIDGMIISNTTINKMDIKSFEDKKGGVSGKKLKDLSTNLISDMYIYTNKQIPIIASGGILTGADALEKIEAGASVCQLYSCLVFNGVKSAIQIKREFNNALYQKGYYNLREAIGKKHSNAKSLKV

Row | SMILES | IC50 (pbDHODH) [nM] | IC50 (pvDHODH) [nM] | IC50 (scDHODH) [nM] | IC50 (P. falciparum HB3) [nM] | IC50 (P. falciparum D10) [nM] | IC50 ([1]; Plasmodium falciparum, D10, read-out: D10-scDHODH IC50) [nM] | efficacy against D10-scDHODH strain compared to D10 parent strain ([1]; dose-effect curves, FIG. 5) | inhibition at 50 µM (pfDHODH) [%] | microsomal CLint (Hepatic clearance, human) [µL/min/mg]
1 | CCCNC(=O)c1ccc(-n2c(C)cc3ccccc32)s1 [Compound 1, 5-(2-methyl-1H-indol-1-yl)-N-propylthiophene-2-carboxamide] | 60 ± 7 | 420 ± 20 | > 10000 | 470 | 610 | > 10000 | significantly reduced | 31 | –
2 | CCCNC(=O)c1ccc(-n2cnc3ccccc32)s1 [Compound 11, 5-(1H-benzo[d]imidazol-1-yl)-N-propylthiophene-2-carboxamide] | – | – | – | – | – | – | – | – | 49
3 | CCCNC(=O)c1ccc(-n2c(C)nc3ccccc32)s1 [Compound 12, 5-(2-methyl-1H-benzo[d]imidazol-1-yl)-N-propylthiophene-2-carboxamide] | – | – | – | – | – | – | – | – | 33

Reference: patent US8703811B2, “Small molecule inhibitors of Plasmodium falciparum dihydroorotate dehydrogenase” (Genzyme Corporation, priority 2008, dated 2014)
